Data: the supplement of paper PMC11451515

Assays:
Assay in all cases: AUC of viability dose-response curve (% viability x log10 dose units); higher = less sensitive
Details in all cases: 48 h
[1] = system: NOMO1
How it was run: (§1)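 Leukemia cells adapted to each medium were seeded in 1536-well plates (500 or 1000 cells/well). They were dosed with library compounds in DMSO at 11 threefold doses, 47 μM to 0.79 nM, for 48 h at 37°C. CellTiter-Glo One luminescence was normalised per plate to DMSO and cell-free wells. Area under the curve was integrated by trapezoidal rule over log10 doses on a four-parameter log-logistic fit; curves exceeding full viability were scaled and curves failing quality control removed.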

[2] = system: P12-Ichikawa
How it was run: as §1

[3] = system: SEM cells
How it was run: as §1

[4] = RPMI 5 mM glucose + 10% dialyzed FBS

SMILES	AUC of viability dose-response curve ([1]; HPLM + 10% dialyzed FBS)	AUC of viability dose-response curve ([1]; RPMI 5 mM glucose + 10% FBS)	AUC of viability dose-response curve [1, 4]	AUC of viability dose-response curve ([2]; HPLM + 10% dialyzed FBS)	AUC of viability dose-response curve ([2]; RPMI 5 mM glucose + 10% FBS)	AUC of viability dose-response curve [2, 4]	AUC of viability dose-response curve ([3]; HPLM + 10% dialyzed FBS)	AUC of viability dose-response curve ([3]; RPMI 5 mM glucose + 10% FBS)	AUC of viability dose-response curve [3, 4]
COc1ccc(CCN2CCN(CCCc3ccccc3)CC2)cc1OC	459	444	439	466	472	473	461	465	457
CN[C@H](CC(C)C)C(=O)N[C@H]1C(=O)N[C@@H](CC(N)=O)C(=O)N[C@H]2C(=O)N[C@H]3C(=O)N[C@H](C(=O)N[C@H](C(=O)O)c4cc(O)cc(O)c4-c4cc3ccc4O)[C@H](O)c3ccc(c(Cl)c3)Oc3cc2cc(c3O[C@@H]2O[C@H](CO)[C@@H](O)[C@H](O)[C@H]2O[C@H]2C[C@](C)(N)[C@H](O)[C@H](C)O2)Oc2ccc(cc2Cl)[C@H]1O	439	468	475	457	462	454	463	458	473
O=C1CSC(=O)N1C(CCc1ccncc1)COc1ccc(-c2cccc([N+](=O)[O-])c2)cc1 (configuration not stated)	444	446	454	447	394	436	427	433	467
